Data on 31 molecules can be found in US9328099B2, “Cyanomethylpyrazole carboxamides as janus kinase inhibitors” (Merck Sharp & Dohme Corp., priority 2011, dated 2016).

Where two headings read alike, the source gives them in different places.

The target in the assay is JAK1 (Homo sapiens (Human), UniProt P23458). Put plainly: Jak Biochemical HTRF Assay, JAK1. The note with it: read-out: JAK1 IC50. From the text:
Jak Biochemical HTRF Assay Protocol
Subsequent reagent additions employed an Agilent Bravo.
For orientation: Time-resolved FRET reads energy transfer from a long-lived donor to a nearby acceptor.

Setting [1] is: HTRF biochemical assay, GST-tagged catalytic domain, top concentration tested […].

JAK1, sequence (P23458 875-1153): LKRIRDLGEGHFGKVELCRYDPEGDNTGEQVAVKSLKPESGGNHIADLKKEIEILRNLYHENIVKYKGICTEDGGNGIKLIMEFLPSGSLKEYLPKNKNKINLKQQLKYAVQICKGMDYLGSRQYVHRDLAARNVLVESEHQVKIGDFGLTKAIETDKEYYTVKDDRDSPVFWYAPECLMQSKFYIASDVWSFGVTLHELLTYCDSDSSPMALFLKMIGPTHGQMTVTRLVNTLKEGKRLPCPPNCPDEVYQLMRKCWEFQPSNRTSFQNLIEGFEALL

The IC50 is the concentration that inhibits the measured activity by half. Take `N#CCC1(n2cc(C(N)=O)c(Nc3ccccc3)n2)CN(C(=O)OC2CCOCC2)C1` [Example 30-63, tetrahydro-2H-pyran-4-yl 3-[4-carbamoyl-3-(phenylamino)-1H-pyrazol-1-yl]-3-(cyanomethyl)azetidine-1-carboxylase]: the IC50 under setting [1] is 11 nM.
Still for that read-out and setting: in the case of `CS(=O)(=O)c1ccc(Nc2nn(C3(CC#N)CCOCC3)cc2C(N)=O)cc1` [Example 4-5, 1-[4-(cyanomethyl)tetrahydro-2H-pyran-4-yl]-3-{[4-(methylsulfonyl)phenyl]amino}-1H-pyrazole-4-carboxamide] it was 22 nM.
The same measure, in the same setting: for `CCOC(=O)C(C)NC(=O)N1CC(CC#N)(n2cc(C(N)=O)c(Nc3ccccc3)n2)C1` (stereo not shown) [Example 38-9, ethyl N-({3-[4-carbamoyl-3-(phenylamino)-1H-pyrazol-1-yl]-3-(cyanomethyl)azetidin-1-yl}carbonyl)alaninate] the value was 38 nM; for `N#CCC1(n2cc(C(N)=O)c(Nc3ccc(F)cc3)n2)CCN(c2cncnc2)CC1` [Example 3-24, 1-[4-(cyanomethyl)-1-pyrimidin-5-ylpiperidin-4-yl]-3-[(4-fluorophenyl)amino]-1H-pyrazole-4-carboxamide], 0.1 nM.
The same measure, in the same setting: for `N#CCC1(n2cc(C(N)=O)c(Nc3ccc(F)cc3)n2)CCN(c2ccc(F)nc2)CC1` [Example 3-22, 1-[4-(cyanomethyl)-1-(6-fluoropyridin-3-yl)piperidin-4-yl]-3-[(4-fluorophenyl)amino]-1H-pyrazole-4-carboxamide] the value was 0.4 nM; for `N#CCC1(n2cc(C(N)=O)c(Nc3ccc(F)cc3)n2)CCN(C(=O)CC(F)(F)F)CC1` [Example 35-1, 1-(4-(Cyanomethyl)-1-(3,3,3-trifluoropropanoyl)piperidin-4-yl)-3-(4-fluorophenylamino)-1H-pyrazole-4-carboxamide], 0.1 nM.
Regarding `N#CCC1(n2cc(C(N)=O)c(Nc3ccc(S(=O)(=O)C(F)F)cc3)n2)CCC(Nc2ccccc2O)CC1` (stereo not drawn) [Example 40-48, Cis or trans 1-{1-(cyanomethyl)-4-[(2-hydroxyphenyl)amino]cyclohexyl}-3-({4-[(difluoromethyl)sulfonyl]phenyl}amino)-1H-pyrazole-4-carboxamide], the IC50 stood at 0.4 nM.
Take `CC(C)(O)c1cccc(N2CCC(CC#N)(n3cc(C(N)=O)c(Nc4ccc(F)cc4)n3)CC2)n1` [Example 3-7, 1-{4-(cyanomethyl)-1-[6-(1-hydroxy-1-methylethyl)pyridin-2-yl]piperidin-4-yl}-3-[(4-fluorophenyl)amino]-1H-pyrazole-4-carboxamide]: under setting [1], the IC50 came out at 0.3 nM.
On the same count and under the same terms, in the case of `N#CCC1(n2cc(C(N)=O)c(Nc3ccc(F)cc3)n2)CCN(c2cncc3ccccc23)CC1` [Example 3-2, 1-[4-(cyanomethyl)-1-isoquinolin-4-ylpiperidin-4-yl]-3-[(4-fluorophenyl)amino]-1H-pyrazole-4-carboxamide] it was 6 nM; in that of `N#CCC1(n2cc(C(N)=O)c(Nc3ccc(F)cc3)n2)CCC(NCC(F)(F)F)CC1` (stereo not drawn) [Example 40-98, Cis or trans 1-{1-(cyanomethyl)-4-[(2,2,2-trifluoroethyl)amino]cyclohexyl}-3-[(4-fluorophenyl)amino]-1H-pyrazole-4-carboxamide], 1 nM.
Same read-out and setting: for `N#CCC1(n2cc(C(N)=O)c(Nc3ccccc3)n2)CN(C(=O)OCCc2ccccc2)C1` [Example 30-58, 2-phenylethyl 3-[4-carbamoyl-3-(phenylamino)-1H-pyrazol-1-yl]-3-(cyanomethyl)azetidine-1-carboxylate] the value was 76 nM; for `CNC1CCC(CC#N)(n2cc(C(N)=O)c(Nc3ccc(F)cc3)n2)CC1` (stereo not drawn) [Example 40-78, Cis or trans 1-[1-(cyanomethyl)-4-(methylamino)cyclohexyl]-3-[(4-fluorophenyl)amino]-1H-pyrazole-4-carboxamide], 12 nM; for `CC(C)(C)COC(=O)N1CC(CC#N)(n2cc(C(N)=O)c(Nc3ccccc3)n2)C1` [Example 30-56, 2,2-dimethylpropyl 3-[4-carbamoyl-3-(phenylamino)-1H-pyrazol-1-yl]-3-(cyanomethyl)azetidine-1-carboxylate], 18 nM.
On to `N#CCC1(n2cc(C(N)=O)c(Nc3ccnc(F)c3)n2)CCN(C(=O)OC2CCOC2)CC1` (single isomer, unassigned) [Example 49-2, (3S or 3R)-tetrahydrofuran-3-yl 4-{4-carbamoyl-3-[(2-fluoropyridin-4-yl)amino]-1H-pyrazol-1-yl}-4-(cyanomethyl)piperidine-1-carboxylate], for which, under setting [1], the IC50 was determined as 0.4 nM.
Still for that read-out and setting: for `CC(F)(F)C(=O)N1CC[C@](CC#N)(n2cc(C(N)=O)c(Nc3ccc(F)nc3)n2)[C@H](F)C1` (single isomer, unassigned) [Example 43-3, 1-((3R,4R or 3S,4S)-4-(cyanomethyl)-1-(2,2-difluoropropanoyl)-3-fluoropiperidin-4-yl)-3-((6-fluoropyridin-3-yl)amino)-1H-pyrazole-4-carboxamide] the value was 0.9 nM.
The same measure, in the same setting: in the case of `N#CCC1(n2cc(C(N)=O)c(Nc3ccnc(F)c3)n2)CCC(Nc2ccccn2)CC1` (stereo not drawn) [Example 40-4, Cis or trans 1-[1-(cyanomethyl)-4-(pyridin-2-ylamino)cyclohexyl]-3-[(2-fluoropyridin-4-yl)amino]-1H-pyrazole-4-carboxamide] it was 102 nM; in that of `CN1CCN(CCOC(=O)N2CC(CC#N)(n3cc(C(N)=O)c(Nc4ccccc4)n3)C2)CC1` [Example 30-72, 2-(4-methylpiperazin-1-yl)ethyl 3-[4-carbamoyl-3-(phenylamino)-1H-pyrazol-1-yl]-3-(cyanomethyl)azetidine-1-carboxylate], 72 nM.
Still for that read-out and setting: for `N#CCC1(n2cc(C(N)=O)c(Nc3ccc(S(=O)(=O)C(F)(F)F)cc3)n2)CCN(C(=O)OC2COC2)CC1` [Example 30-26, oxetan-3-yl 4-(4-carbamoyl-3-(4-(trifluoromethylsulfonyl)phenylamino)-1H-pyrazol-1-yl)-4-(cyanomethyl)piperidine-1-carboxylate] the value was 0.2 nM; for `COc1cccc(Nc2nn(C3(CC#N)CCN(C(=O)OC(C)(C)C)CC3)cc2C(N)=O)n1` [Example 13-9, tert-butyl 4-(4-carbamoyl-3-(6-methoxypyridin-2-ylamino)-1H-pyrazol-1-yl)-4-(cyanomethyl)piperidine-1-carboxylate], 10 nM; for `N#CCC1(n2cc(C(N)=O)c(Nc3ccnc(F)c3)n2)CCN(Cc2ccc(O)nc2)CC1` [Example 22-68, 1-{4-(cyanomethyl)-1-[(6-hydroxypyridin-3-yl)methyl]piperidin-4-yl}-3-[(2-fluoropyridin-4-yl)amino]-1H-pyrazole-4-carboxamide], 0.1 nM.
On to `CC(C)(C)OC(=O)C1CCC(CC#N)(n2cc(C(N)=O)c(Nc3ccccc3)n2)CC1` (stereo not shown) [Example 2-18, tert-butyl 4-[4-carbamoyl-3-(phenylamino)-1H-pyrazol-1-yl]-4-(cyanomethyl) cyclohexanecarboxylate], for which the 50% inhibitory concentration (IC50) under setting [1] came out at 3 nM.
On the same count and under the same terms, in the case of `N#CCC1(n2cc(C(N)=O)c(Nc3ccc(OC4CCC4)nc3)n2)CCN(C(=O)OCC(F)F)CC1` [Example 9-37, 2,2-difluoroethyl 4-(4-carbamoyl-3-{[6-(cyclobutyloxy)pyridin-3-yl]amino}-1H-pyrazol-1-yl)-4-(cyanomethyl)piperidine-1-carboxylate] it was 0.2 nM; in that of `N#CCC1(n2cc(C(N)=O)c(Nc3ccccc3)n2)CCN(C(=O)c2cnccn2)CC1` [Example 34-11, 1-[4-(cyanomethyl)-1-(pyrazin-2-ylcarbonyl)piperidin-4-yl]-3-(phenylamino)-1H-pyrazole-4-carboxamide], 12 nM.
Same read-out and setting: in the case of `CC(C)(C)OC(=O)N1CCC(CC#N)(n2cc(C(N)=O)c(Nc3ccnc(C(F)(F)F)c3)n2)CC1` [Example 9-23, tert-butyl 4-(4-carbamoyl-3-{[2-(trifluoromethyl)pyridin-4-yl]amino}-1H-pyrazol-1-yl)-4-(cyanomethyl)piperidine-1-carboxylate] it was 0.4 nM.
The same measure, in the same setting: in the case of `N#CC[C@]1(n2cc(C(N)=O)c(Nc3ccnc(F)c3)n2)CC[C@@H](NS(=O)(=O)c2cccc(F)c2)CC1` [Example 42, cis-1-(1-(Cyanomethyl)-4-(3-fluorophenylsulfonamido)cyclohexyl)-3-((2-fluoropyridin-4-yl)amino)-1H-pyrazole-4-carboxamide] it was 8 nM; in that of `Cc1cccc(N2CCC(CC#N)(n3cc(C(N)=O)c(Nc4ccc(F)cc4)n3)CC2)n1` [Example 3-20, 1-[4-(cyanomethyl)-1-(6-methylpyridin-2-yl)piperidin-4-yl]-3-[(4-fluorophenyl)amino]-1H-pyrazole-4-carboxamide], 5 nM; in that of `N#CCC1(n2cc(C(N)=O)c(Nc3ccc(F)cc3)n2)CCC(NCCO)CC1` (stereo not drawn) [Example 40-68, Cis or trans 1-{1-(cyanomethyl)-4-[(2-hydroxyethyl)amino]cyclohexyl}-3-[(4-fluorophenyl)amino]-1H-pyrazole-4-carboxamide], 69 nM.
Take `CC(OC(=O)N1CCC(CC#N)(n2cc(C(N)=O)c(Nc3ccc(F)cc3)n2)CC1)C1CC1` (stereo not shown) [Example 30-12, 1-cyclopropylethyl 4-(4-carbamoyl-3-(4-fluorophenylamino)-1H-pyrazol-1-yl)-4-(cyanomethyl)piperidine-1-carboxylate]: under setting [1], the IC50 is 6 nM.
The same measure, in the same setting: for `N#CCC1(n2cc(C(N)=O)c(Nc3ccc(S(=O)(=O)C(F)F)cc3)n2)CCC(N2CC(F)C2)CC1` (stereo not drawn) [Example 40-91, Cis or trans 1-[1-(cyanomethyl)-4-(3-fluoroazetidin-1-yl)cyclohexyl]-3-({4-[(difluoromethyl)sulfonyl]phenyl}amino)-1H-pyrazole-4-carboxamide] the value was 67 nM.
On the same count and under the same terms, for `N#CCC1(n2cc(C(N)=O)c(Nc3ccc(F)cc3)n2)CCSCC1` [Example 7, 1-(4-(Cyanomethyl)tetrahydro-2H-thiopyran-4-yl)-3-((4-fluorophenyl)amino)-1H-pyrazole-4-carboxamide] the value was 8 nM; for `N#CCC1(n2cc(C(N)=O)c(Nc3ccccc3)n2)CN(C(=O)c2ccccn2)C1` [Example 34-38, 1-[3-(cyanomethyl)-1-(pyridin-2-ylcarbonyl)azetidin-3-yl]-3-(phenylamino)-1H-pyrazole-4-carboxamide], 59 nM.
